Test results as given in the NIST ThermoML archive (doi:10.1021/je200178b).
Numbers after ± are expanded uncertainties.

Test: mean ionic activity coefficient (dimensionless); mn = molality of the nth substance listed, in mol/kg
Settings: 298.15 K, 101 kPa, Liquid, ion-selective electrode

[F-].[Rb+] [rubidium fluoride (RbF)] + O
mean ionic activity coefficient (m1 = 0.0046): 0.9305 ± 0.001 | mean ionic activity coefficient (m1 = 0.0096): 0.9047 ± 0.0009 | mean ionic activity coefficient (m1 = 0.014): 0.8889 ± 0.0006 | mean ionic activity coefficient (m1 = 0.0187): 0.8759 ± 0.0005 | mean ionic activity coefficient (m1 = 0.0232): 0.8654 ± 0.0004 | mean ionic activity coefficient (m1 = 0.0275): 0.8567 ± 0.0004 | mean ionic activity coefficient (m1 = 0.0321): 0.8486 ± 0.0003 | mean ionic activity coefficient (m1 = 0.0367): 0.8414 ± 0.0003 | mean ionic activity coefficient (m1 = 0.0411): 0.8351 ± 0.0003 | mean ionic activity coefficient (m1 = 0.0506): 0.8235 ± 0.0002 | mean ionic activity coefficient (m1 = 0.0596): 0.8141 ± 0.0002 | mean ionic activity coefficient (m1 = 0.0685): 0.806 ± 0.0002 | mean ionic activity coefficient (m1 = 0.0772): 0.799 ± 0.0002 | mean ionic activity coefficient (m1 = 0.0915): 0.7891 ± 0.0001 | mean ionic activity coefficient (m1 = 0.1058): 0.7806 ± 0.0001 | mean ionic activity coefficient (m1 = 0.1293): 0.769 ± 0.0001 | mean ionic activity coefficient (m1 = 0.1517): 0.7599 ± 0.0001 | mean ionic activity coefficient (m1 = 0.1747): 0.7521 ± 0.0001 | mean ionic activity coefficient (m1 = 0.2107): 0.7421 ± 0.0001 | mean ionic activity coefficient (m1 = 0.2467): 0.7342 ± 0.0001 | mean ionic activity coefficient (m1 = 0.2819): 0.7278 ± 0.0001 | mean ionic activity coefficient (m1 = 0.3349): 0.7202 ± 0.0001 | mean ionic activity coefficient (m1 = 0.3859): 0.7146 ± 0.0001 | mean ionic activity coefficient (m1 = 0.4584): 0.7086 ± 0.0001 | mean ionic activity coefficient (m1 = 0.5332): 0.7043 ± 0.0001 | mean ionic activity coefficient (m1 = 0.6214): 0.701 ± 0.0001

[Cs+].[F-] [cesium fluoride (CsF)] + O
mean ionic activity coefficient (m1 = 0.0043): 0.9338 ± 0.0011 | mean ionic activity coefficient (m1 = 0.0085): 0.9112 ± 0.0009 | mean ionic activity coefficient (m1 = 0.0128): 0.8953 ± 0.0007 | mean ionic activity coefficient (m1 = 0.0172): 0.8824 ± 0.0005 | mean ionic activity coefficient (m1 = 0.0215): 0.872 ± 0.0005 | mean ionic activity coefficient (m1 = 0.0258): 0.863 ± 0.0004 | mean ionic activity coefficient (m1 = 0.0302): 0.8551 ± 0.0003 | mean ionic activity coefficient (m1 = 0.0346): 0.848 ± 0.0003 | mean ionic activity coefficient (m1 = 0.0391): 0.8416 ± 0.0003 | mean ionic activity coefficient (m1 = 0.0437): 0.8355 ± 0.0002 | mean ionic activity coefficient (m1 = 0.0523): 0.8257 ± 0.0002 | mean ionic activity coefficient (m1 = 0.0608): 0.8173 ± 0.0002 | mean ionic activity coefficient (m1 = 0.0698): 0.8096 ± 0.0002 | mean ionic activity coefficient (m1 = 0.0787): 0.8028 ± 0.0002 | mean ionic activity coefficient (m1 = 0.0875): 0.7968 ± 0.0001 | mean ionic activity coefficient (m1 = 0.1003): 0.7892 ± 0.0001 | mean ionic activity coefficient (m1 = 0.1138): 0.7822 ± 0.0001 | mean ionic activity coefficient (m1 = 0.1268): 0.7762 ± 0.0001 | mean ionic activity coefficient (m1 = 0.1455): 0.7689 ± 0.0001 | mean ionic activity coefficient (m1 = 0.1632): 0.7629 ± 0.0001 | mean ionic activity coefficient (m1 = 0.1817): 0.7575 ± 0.0001 | mean ionic activity coefficient (m1 = 0.2045): 0.7517 ± 0.0001 | mean ionic activity coefficient (m1 = 0.226): 0.7471 ± 0.0001 | mean ionic activity coefficient (m1 = 0.2524): 0.7423 ± 0.0001 | mean ionic activity coefficient (m1 = 0.2823): 0.7377 ± 0.0001 | mean ionic activity coefficient (m1 = 0.3166): 0.7335 ± 0.0001 | mean ionic activity coefficient (m1 = 0.3589): 0.7294 ± 0.0001 | mean ionic activity coefficient (m1 = 0.4086): 0.7259 ± 0.0001 | mean ionic activity coefficient (m1 = 0.4762): 0.7227 ± 0.0001
